Data from patent publication US20250378953A1, “ORGAN DIGITAL TWIN SYSTEMS AND METHODS FOR CREATING AND USING SUCH SYSTEMS” (Yale University, priority 2022, published 2025).
Read-outs that look alike come from different tables or passages of the source.

Tested on: porcine kidney
Excerpt: For the ex vivo normothermic perfusion of kidneys, data pertaining to the hemodynamics of the kidney were collected and monitored: kidney mass, urine output, arterial flow, arterial pressure, pump speed, hematocrit, and arterial oxygen saturation. To accomplish this, ZP-50N digital force gauges by Baoshishan were used to measure kidney mass and urine output; a Medtronic Bio-console device to measure flow, pressure, and pump speed; and a Medtronic Bio-trend device to measure hematocrit and oxygen saturation.
Data collection from these sensors was standardized at a rate of 0.2 Hz (approximately a data point every five seconds) and integrated via an open-source software written in Python. […] The act of collecting data from each sensor simultaneously presented a unique challenge in that a typical computer program is sequential in its execution, meaning that data collection from one sensor should not be able to occur until collection from another sensor is finished. Furthermore, the runtime complexity of the code block associated with each sensor meant that data collection from one sensor could potentially interfere with the collection from another, and vice-versa. To circumvent these issues, the code blocks for each sensor were run in separate threads using the Python threading library. This allowed each code block to be executed simultaneously in parallel (as opposed to sequentially in series), meaning data collection from one sensor was independent of data collection from all other sensors. After the data was extracted, the code block for each sensor transformed the data string by removing superfluous characters and converting the pertinent data into a float format. To upload the transformed data to the Azure cloud database the sys, platform, and pyodbc libraries were used to communicate with the edge device and establish a database connection using an SQL driver.
The “Blood gas data upload” feature allows one to manually input data collected from perfusate analysis assays. For our perfusion experiment, CG8+ and Renal Function Panel cartridges were used with iStat and Piccolo devices, respectively; however, the software can easily be modified to accommodate other perfusate assays.
Histamine was administered at two different time-points during the perfusion.

NCCc1c[nH]cn1 [histamine]
arterial flow after histamine (40 mg histamine on the arterial side at 240 minutes of perfusion): Flow immediately stopped | arterial flow after histamine (100 mg histamine on the arterial side at 90 minutes of perfusion): immediate halt of flow | time until flow normalized (after 40 mg histamine at 240 minutes, pump RPM slowly increased to 1900, no heparin): 30 min | time until flow increased and arterial pressure normalized (after 100 mg histamine at 90 min, heparin at 120 minute, pump RPM 2000): ≤ 60 min | arterial pressure while flow slowly returned (after 100 mg histamine at 90 min, 20k units heparin added at 120 minute, pump RPM increased to 2000, starting arterial pressure 15 mmHg): 40-60 mmHg | kidney weight after flow and pressures normalized (after first histamine administration, weight before histamine approximately 0.26 Kg): 0.27 to 0.28 kg | kidney weight after histamine (manual recordings) (after histamine at 90 minutes, weight before approximately 0.26 Kg): approximately 0.24 Kg | arterial pressure immediately after histamine (arterial administration of histamine): immediately increased | urine production (qualitative observation) (first histamine administration at 90 minutes): initiate after the first histamine administration
